As a reminder, the IC50 is the midpoint of a concentration-inhibition curve.

One assay deals with T1, human full-length MKNK1 (Homo sapiens, UniProt Q9BUB5, T385D).
T1 construct: GST (N); purchased Carna Biosciences 02-145; host or cells: insect cells (baculovirus expression system)
T1 sequence (Q9BUB5 1-424 isoform Q9BUB5-2 T344D): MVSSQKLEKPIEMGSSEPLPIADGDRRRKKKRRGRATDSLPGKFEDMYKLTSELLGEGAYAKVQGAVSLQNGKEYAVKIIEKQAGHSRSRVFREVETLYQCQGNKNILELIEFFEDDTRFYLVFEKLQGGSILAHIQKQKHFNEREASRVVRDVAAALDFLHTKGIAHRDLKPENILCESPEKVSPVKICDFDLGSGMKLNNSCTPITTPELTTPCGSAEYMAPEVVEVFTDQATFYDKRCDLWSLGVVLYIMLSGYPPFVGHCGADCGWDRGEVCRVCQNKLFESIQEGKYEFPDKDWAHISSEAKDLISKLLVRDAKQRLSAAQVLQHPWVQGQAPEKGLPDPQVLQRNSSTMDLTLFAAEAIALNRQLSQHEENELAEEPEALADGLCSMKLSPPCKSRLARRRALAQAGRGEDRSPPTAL
The assay can be described thus: MKNK1 kinase high ATP assay (TR-FRET). It counts as biochemical. Particulars: Table 1; MKNK1 kinase high ATP assay, 2 mM ATP; read-out: MKNK1 IC50. The method in brief:
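Full-length human MKNK1 (T385D) preincubated 15 min at 22 °C with compound in HEPES pH 7.5/MgCl2/DTT buffer; reaction with 2 mM ATP (final) and 0.06 μM biotinylated peptide (final), 30 min at 22 °C.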
For orientation: In TR-FRET formats the signal depends on donor and acceptor labels being close together.
`COCCN(CCOC)C(=O)[C@H]1CCc2c(sc3ncnc(Nc4ccc5[nH]ncc5c4)c23)C1` [Example 16, (7S)-4-(1H-Indazol-5-ylamino)-N,N-bis(2-methoxyethyl)-5,6,7,8-tetrahydro[1]benzothieno[2,3-d]pyrimidine-7-carboxamide]: the IC50 was found to be 2.4 nM.

Turning to `CCOc1cc2[nH]ncc2cc1Nc1ncnc2sc3c(c12)CC[C@H](C(=O)N1CC2(COC2)C1)C3` [Example 72, {(7S)-4-[(6-Ethoxy-1H-indazol-5-yl)amino]-5,6,7,8-tetrahydro[1]benzothieno[2,3-d]pyrimidin-7-yl}(2-oxa-6-azaspiro[3.3]hept-6-yl)methanone], the IC50 came to 0.7 nM.

For the molecule `CCOc1cc2[nH]ncc2cc1Nc1ncnc2sc3c(c12)CC[C@H](C(=O)N1C[C@@H](C)O[C@@H](C)C1)C3` [Example 167, [(2R,6S)-2,6-dimethylmorpholin-4-yl]{(7S)-4-[(6-ethoxy-1H-indazol-5-yl)amino]-5,6,7,8-tetrahydro[1]benzothieno[2,3-d]pyrimidin-7-yl}methanone], the IC50 is 0.3 nM.

Take `COc1cc2[nH]ncc2cc1Nc1ncnc2sc3c(c12)CC[C@H](C(=O)N(CCN(C)C)Cc1ccncc1)C3` [Example 62, (7S)—N-[2-(Dimethylamino)ethyl]-4-[(6-methoxy-1H-indazol-5-yl)amino]-N-(pyridin-4-ylmethyl)-5,6,7,8-tetrahydro[1]benzothieno[2,3-d]pyrimidine-7-carboxamide]: the IC50 was determined as 0.1 nM.

On to `CC(C)Oc1cc2[nH]ncc2cc1Nc1ncnc2sc3c(c12)CC[C@H](C(=O)N1CC[C@H](N(C)C)C1)C3` [Example 168, [(3S)-3-(dimethylamino)pyrrolidin-1-yl][(7S)-4-{[6-(propan-2-yloxy)-1H-indazol-5-yl]amino}-5,6,7,8-tetrahydro[1]benzothieno[2,3-d]pyrimidin-7-yl]methanone], for which the IC50 was determined as 0.4 nM.

For the molecule `CN(C)C(=O)[C@H]1CCc2c(sc3ncnc(Nc4cc5cn[nH]c5cc4N(C)CC(C)(C)O)c23)C1` [Example 101, (7S)-4-({6-[(2-Hydroxy-2-methylpropyl)(methyl)amino]-1H-indazol-5-yl}amino)-N,N-dimethyl-5,6,7,8-tetrahydro[1]benzothieno[2,3-d]pyrimidine-7-carboxamide], the 50% inhibitory concentration (IC50) was 9.1 nM.

As to `CN(C)CCOc1cc2[nH]ncc2cc1Nc1ncnc2sc3c(c12)CC[C@H](C(=O)N1CCC(N(C)C)CC1)C3` [Example 134, [(7S)-4-({6-[2-(Dimethylamino)ethoxy]-1H-indazol-5-yl}amino)-5,6,7,8-tetrahydro[1]benzothieno[2,3-d]pyrimidin-7-yl][4-(dimethylamino)piperidin-1-yl]methanone], the IC50 is 8.3 nM.

In the case of `CN(C)C(=O)[C@H]1CCc2c(sc3ncnc(Nc4cc5cn[nH]c5cc4OCCNC(=O)CC4CCCCC4)c23)C1` [Example 274, (7S)-4-[(6-{2-[(Cyclohexylacetyl)amino]ethoxy}-1H-indazol-5-yl)amino]-N,N-dimethyl-5,6,7,8-tetrahydro[1]benzothieno[2,3-d]pyrimidine-7-carboxamide], the 50% inhibitory concentration (IC50) turned out to be 0.3 nM.

Consider `COc1cc2[nH]ncc2cc1Nc1ncnc2sc3c(c12)CC[C@H](C(=O)N1CC(C)(O)C1)C3` [Example 36, (3-hydroxy-3-Methylazetidin-1-yl){(7S)-4-[(6-methoxy-1H-indazol-5-yl)amino]-5,6,7,8-tetrahydro[1]benzothieno[2,3-d]pyrimidin-7-yl}methanone], for which the IC50 came out at 0.5 nM.

Turning to `COc1cc2[nH]ncc2cc1Nc1ncnc2sc3c(c12)CC[C@H](C(=O)N(C)S(C)(=O)=O)C3` [Example 216, (7S)-4-[(6-Methoxy-1H-indazol-5-yl)amino]-N-methyl-N-(methylsulfonyl)-5,6,7,8-tetrahydro[1]benzothieno[2,3-d]pyrimidine-7-carboxamide], the IC50 was determined as 0.5 nM.

Consider `COc1cc2[nH]ncc2cc1Nc1ncnc2sc3c(c12)CC[C@H](C(=O)N1CCC(N(C)C)CC1)C3` [Example 46, [4-(Dimethylamino)piperidin-1-yl]{(7S)-4-[(6-methoxy-1H-indazol-5-yl)amino]-5,6,7,8-tetrahydro[1]benzothieno[2,3-d]pyrimidin-7-yl}methanone], for which the 50% inhibitory concentration (IC50) is 0.1 nM.

In the case of `CN(CCC(F)(F)F)C(=O)[C@H]1CCc2c(sc3ncnc(Nc4cc5cn[nH]c5cc4N(C)C)c23)C1` [Example 241, (7S)-4-{[6-(Dimethylamino)-1H-indazol-5-yl]amino}-N-methyl-N-(3,3,3-trifluoropropyl)-5,6,7,8-tetrahydro[1]benzothieno[2,3-d]pyrimidine-7-carboxamide], the IC50 came out at 0.2 nM.

Consider `COc1cc2[nH]ncc2cc1Nc1ncnc2sc3c(c12)CC[C@H](C(=O)N1CCOC[C@@H]1C)C3` [Example 30, {(7S)-4-[(6-Methoxy-1H-indazol-5-yl)amino]-5,6,7,8-tetrahydro[1]benzothieno[2,3-d]pyrimidin-7-yl}[(3S)-3-methylmorpholin-4-yl]methanone], for which the 50% inhibitory concentration (IC50) is 0.3 nM.

Take `C[C@H](N)COc1cc2[nH]ncc2cc1Nc1ncnc2sc3c(c12)CC[C@H](C(=O)N1CCOC[C@H]1C)C3` [Example 146, {(7S)-4-[(6-{[(2S)-2-Aminopropyl]oxy}-1H-indazol-5-yl)amino]-5,6,7,8-tetrahydro[1]benzothieno[2,3-d]pyrimidin-7-yl}[(3R)-3-methylmorpholin-4-yl]methanone]: the IC50 is 13.1 nM.

For the molecule `C[C@@H]1COCCN1C(=O)[C@H]1CCc2c(sc3ncnc(Nc4cc5cn[nH]c5cc4OCCN)c23)C1` [Example 130, [(7S)-4-{[6-(2-Aminoethoxy)-1H-indazol-5-yl]amino}-5,6,7,8-tetrahydro[1]benzothieno[2,3-d]pyrimidin-7-yl][(3R)-3-methylmorpholin-4-yl]methanone], the IC50 came to 0.9 nM.

Take `CN(C)C(=O)[C@H]1CCc2c(sc3ncnc(Nc4cc5cn[nH]c5cc4OCCNC(=O)C(C)(C)C)c23)C1` [Example 257, (7S)-4-[(6-{2-[(2,2-Dimethylpropanoyl)amino]ethoxy}-1H-indazol-5-yl)amino]-N, N-dimethyl-5,6,7,8-tetrahydro[1]benzothieno[2,3-d]pyrimidine-7-carboxamide]: the concentration for half-maximal inhibition (IC50) came to 2.4 nM.

Regarding `COc1cc2[nH]ncc2cc1Nc1ncnc2sc3c(c12)CC[C@H](C(=O)N1C[C@H]2C[C@@H]1CO2)C3` [Example 34, {(7S)-4-[(6-Methoxy-1H-indazol-5-yl)amino]-5,6,7,8-tetrahydro[1]benzothieno[2,3-d]pyrimidin-7-yl}[(1R,4R)-2-oxa-5-azabicyclo[2.2.1]hept-5-yl]methanone], the 50% inhibitory concentration (IC50) is 0.5 nM.

As for `CCCN(C)C(=O)[C@H]1CCc2c(sc3ncnc(Nc4cc5cn[nH]c5cc4OCC)c23)C1` [Example 174, (7S)-4-[(6-Ethoxy-1H-indazol-5-yl)amino]-N-methyl-N-propyl-5,6,7,8-tetrahydro[1]benzothieno[2,3-d]pyrimidine-7-carboxamide], the 50% inhibitory concentration (IC50) was found to be 0.1 nM.

Take `C[C@H]1COCCN1C(=O)[C@H]1CCc2c(sc3ncnc(Nc4cc5cn[nH]c5cc4OC4CNC4)c23)C1` [Example 268, [(7S)-4-{[6-(Azetidin-3-yloxy)-1H-indazol-5-yl]amino}-5,6,7,8-tetrahydro[1]benzothieno[2,3-d]pyrimidin-7-yl][(3S)-3-methylmorpholin-4-yl]methanone]: the 50% inhibitory concentration (IC50) is 0.6 nM.

On to `CC(C)Oc1cc2[nH]ncc2cc1Nc1ncnc2sc3c(c12)CC[C@H](C(=O)N1C[C@H]2C[C@@H]1CO2)C3` [Example 87, (1R,4R)-2-Oxa-5-azabicyclo[2.2.1]hept-5-yl[(7S)-4-{[6-(propan-2-yloxy)-1H-indazol-5-yl]amino}-5,6,7,8-tetrahydro[1]benzothieno[2,3-d]pyrimidin-7-yl]methanone], for which the 50% inhibitory concentration (IC50) amounted to 0.3 nM.

In the case of `CCCC(=O)NCCOc1cc2[nH]ncc2cc1Nc1ncnc2sc3c(c12)CC[C@H](C(=O)N(C)C)C3` [Example 270, (7S)-4-({6-[2-(Butanoylamino)ethoxy]-1H-indazol-5-yl}amino)-N,N-dimethyl-5,6,7,8-tetrahydro[1]benzothieno[2,3-d]pyrimidine-7-carboxamide], the half-inhibitory concentration (IC50) was 1.1 nM.

In the case of `CSc1cc2[nH]ncc2cc1Nc1ncnc2sc3c(c12)CC[C@H](C(=O)N1CCOCC1)C3` [Example 255, [(7S)-4-{[6-(Methylsulfanyl)-1H-indazol-5-yl]amino}-5,6,7,8-tetrahydro[1]benzothieno[2,3-d]pyrimidin-7-yl](morpholin-4-yl)methanone], the half-inhibitory concentration (IC50) came to 2 nM.

With `CCOc1cc2[nH]ncc2cc1Nc1ncnc2sc3c(c12)CC[C@H](C(=O)N1CC[C@H](N(C)C)C1)C3` [Example 172, [(3S)-3-(Dimethylamino)pyrrolidin-1-yl]{(7S)-4-[(6-ethoxy-1H-indazol-5-yl)amino]-5,6,7,8-tetrahydro[1]benzothieno[2,3-d]pyrimidin-7-yl}methanone], the half-inhibitory concentration (IC50) stood at 0.1 nM.

Regarding `C[C@@H]1CN(C(=O)[C@H]2CCc3c(sc4ncnc(Nc5cc6cn[nH]c6cc5OC5CN(C(=O)OC(C)(C)C)C5)c34)C2)C[C@H](C)O1` [Example 266, tert-Butyl 3-[(5-{[(7S)-7-{[(2R,6S)-2,6-dimethylmorpholin-4-yl]carbonyl}-5,6,7,8-tetrahydro[1]benzothieno[2,3-d]pyrimidin-4-yl]amino}-1H-indazol-6-yl)oxy]azetidine-1-carboxylate], the IC50 is 0.9 nM.

Still in this assay, the particulars now being: Table 3; example numbers of WO2013/174744(A1), not of this patent; pure enantiomer from chiral HPLC, absolute configuration at amide 'R or S'; read-out: MKNK1 IC50.
As to “(7S)-4-(1H-Indazol-5-ylamino)-N-methyl-N-(3,3,3-trifluoropropyl)-5,6,7,8-tetrahydro[1]benzothieno[2,3-d]pyrimidine-7-carboxamide [Example 6]”, the IC50 is 15.6 nM.

The same assay, now with this note: Table 3; example numbers of WO2013/174744(A1), not of this patent; pure enantiomer from chiral HPLC, absolute configuration at amide 'S or R'; read-out: MKNK1 IC50.
On to “(7S)-4-(1H-Indazol-5-ylamino)-N-methyl-N-(3,3,3-trifluoropropyl)-5,6,7,8-tetrahydro[1]benzothieno[2,3-d]pyrimidine-7-carboxamide [Example 6]”, for which the IC50 was determined as 7.5 nM.

Staying with this assay, now noted: Table 3; example numbers of WO2013/174744(A1); ratio of the IC50 values of the two enantiomers.
For the molecule “(7S)-4-(1H-Indazol-5-ylamino)-N-methyl-N-(3,3,3-trifluoropropyl)-5,6,7,8-tetrahydro[1]benzothieno[2,3-d]pyrimidine-7-carboxamide [Example 6]”, the “Activity Ratio MKNK1” value is recorded as 2.1.
